Measured values from PMC10461969 (bioRxiv, 2023).
Where two headings read alike, the source gives them in different places.

How the values were obtained:
SIRT5 [1] = biological target: T1, SIRT5 (Homo sapiens, UniProt Q9NXA8); test: SIRTify in live; assay type: cell-based; settings: intact HepG2-LgBiT cells with furimazine
T1 sequence (Q9NXA8 37-310): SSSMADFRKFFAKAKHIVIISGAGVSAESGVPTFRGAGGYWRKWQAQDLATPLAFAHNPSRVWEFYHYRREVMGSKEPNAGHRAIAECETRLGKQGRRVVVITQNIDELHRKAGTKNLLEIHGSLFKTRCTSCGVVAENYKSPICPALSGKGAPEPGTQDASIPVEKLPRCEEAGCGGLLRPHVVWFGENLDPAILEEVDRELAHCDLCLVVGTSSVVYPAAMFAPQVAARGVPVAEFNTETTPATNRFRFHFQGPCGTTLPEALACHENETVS

SIRT5 [2] = biological target: T1, SIRT5; test: SIRTify in live; assay type: cell-based; settings: intact KG1a-LgBiT cells with furimazine
SIRT5 [3] = biological target: T1, SIRT5; test: SIRTify cell-free inhibitor assay, SIRT5; settings: for IC50: 250 μM NAD+
SIRT5 [4] = biological target: T1, SIRT5; settings: read-out: IC50 Pub., Succinyl; cited from earlier work
Sirt5 [5] = biological target: T2, Sirt5 (Danio rerio, UniProt Q6DHI5); test: Endogenous Sirt5 desuccinylation activity in zebrafish embryos; assay type: in vivo, zebrafish (Danio rerio); settings: embryos injected with LgBiT and peptide; endurazine
T2 sequence (Q6DHI5 33-305): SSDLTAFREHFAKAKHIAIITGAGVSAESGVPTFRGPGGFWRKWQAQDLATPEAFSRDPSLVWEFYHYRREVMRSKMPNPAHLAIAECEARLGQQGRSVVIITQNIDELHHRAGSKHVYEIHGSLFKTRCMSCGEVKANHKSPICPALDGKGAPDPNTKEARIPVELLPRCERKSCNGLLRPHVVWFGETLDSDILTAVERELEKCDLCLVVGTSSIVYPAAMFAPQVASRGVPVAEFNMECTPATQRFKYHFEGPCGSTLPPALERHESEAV

Row | luminescence versus peptide concentration (cell permeability) (SIRT5 [1]) | luminescence versus peptide concentration (cell permeability) (SIRT5 [2]) | lower IC50 for deglutarylase activity compared to desuccinylase activity (SIRT5 [3]) | IC50 (SIRT5 [3]; Glutaryl substrate (deglutarylase activity)) [µM] | IC50 (SIRT5 [3]; Succinyl substrate (desuccinylase activity)) [µM] | luminescence over 90 minutes (endogenous desuccinylation) (Sirt5 [5]) | Compound | IC50 (SIRT5 [4]) [µM]
1 |  |  | approximately 3 fold | 0.047 ± 0.002 | 0.102 ± 0.008 |  | O=C(O)CCNC(=S)NCCCC[C@H](NS(=O)(=O)c1cccc(F)c1)C(=O)N[C@@H](Cc1c[nH]c2ccccc12)C(=O)NC1CCC1 | 0.11
2 | much lower signal | much lower signal |  |  |  |  | H2N-VSGWRLF(KGlut)(KGlut)ISRRRR-OH [p86-Glutaryl8,9-R4] | 
3 | much lower signal | much lower signal |  |  |  | slight increase in luminescence | H2N-VSGWRLF(KSuc)(KSuc)ISRRRR-OH [p86-Succinyl8,9-R4] | 

Row | Compound | luminescence versus peptide concentration (cell permeability) (SIRT5 [1]) | luminescence versus peptide concentration (cell permeability) (SIRT5 [2]) | lower IC50 for deglutarylase activity compared to desuccinylase activity (SIRT5 [3]) | IC50 (SIRT5 [3]; Glutaryl substrate (deglutarylase activity)) [µM] | IC50 (SIRT5 [3]; Succinyl substrate (desuccinylase activity)) [µM] | luminescence over 90 minutes (endogenous desuccinylation) (Sirt5 [5]) | IC50 (SIRT5 [4]) [µM]
4 | CC[C@H](C)[C@H](NC(=O)[C@H](CCCCN)NC(=O)[C@H](CCCCN)NC(=O)[C@H](Cc1ccccc1)NC(=O)[C@H](CC(C)C)NC(=O)[C@H](CCCNC(=N)N)NC(=O)[C@H](Cc1c[nH]c2ccccc12)NC(=O)CNC(=O)[C@H](CO)NC(=O)[C@@H](N)C(C)C)C(=O)N[C@@H](CO)C(=O)N[C@@H](CCCNC(=N)N)C(=O)N[C@@H](CCCNC(=N)N)C(=O)N[C@@H](CCCNC(=N)N)C(=O)N[C@@H](CCCNC(=N)N)C(=O)O [p86-R4] | directly proportional to p86-R4 concentration | directly proportional to p86-R4 concentration |  |  |  |  | 
